Assay results published in US5273991A, “Imidazole-containing compositions and methods of use thereof analogs of distamycin” (Research Corporation Technologies, Inc., priority 1992, dated 1993).

Assays:
poly(dA.dT) = test: circular dichroism (CD) titration, poly(dA.dT); type: binding; details: for CD titration result in words: r' up to ~1.0
Procedure: (§1) The DNA binding properties of the present compounds were assessed by circular dichroism (CD) titration experiments. Methods for CD titration can be found, for example, in Zimmer et al. (1986) Prog. Biophys. Molec. Biol 47, 31. The conformation of DNA can be readily determined by CD experiments, and for B-DNA, characteristic positive and negative Cotton effects are observed at 260 and 245 nm, respectively.
(§2) The interaction of Compounds 6-10 to a number of DNAs [calf thymus, poly(dA dT) and poly(dG dC)] were analyzed by CD titration studies. All the CD titration experiments were performed using identical procedures, concentrations of DNA, and increments of drug:DNA ratios (or `r`, i.e. moles of drug to moles of DNA base pairs). Therefore, the differences observed in the CD spectra for the titration of each of the compounds to the polydeoxynucleotides may be directly compared to reflect their DNA binding properties.
All experiments were performed with a continuous flow of nitrogen purging the polarimeter. A 1 mm path length jacketed cell was used and all experiments were done at room temperature. Initially, DNA [0.02 μ moles (base pairs), 130 μL] was placed in the cell and the spectrum of the DNA alone was collected. Aliquots of drug were added and the spectra collected. […] The scan parameters were set and standard for all experiments. The spectra were collected from 400 nm to 200 nm. The sensitivity was set at 1 mdeg and the scan speed was set at 20 nm per minute. Three scans were accumulated and automatically averaged by the computer. The λmax and ellipticity (mdeg) for each spectrum were collected from the raw scans and the final plots were smoothed by the noise reduction program on the computer. […] The induced CD band is presumably due to the uv absorption π to π^* transition of the drug in the drug:DNA complex. […] Therefore interaction of these drugs with DNA causes only minor conformational changes in the double helix.

poly(dG.dC) = test: circular dichroism (CD) titration, poly(dG.dC); type: binding
Procedure: as §1, §2
All experiments were performed with a continuous flow of nitrogen purging the polarimeter. A 1 mm path length jacketed cell was used and all experiments were done at room temperature. Initially, DNA [0.02 μ moles (base pairs), 130 μL] was placed in the cell and the spectrum of the DNA alone was collected. Aliquots of drug were added and the spectra collected. The drug solutions were 1 mM and amounts of the drug added correspond to a drug to base pair ratio of 0.05, 0.10, 0.15, 0.20, 0.25, 0.30, 0.40, 0.50, 0.60, 0.80, 1.00. The scan parameters were set and standard for all experiments. The spectra were collected from 400 nm to 200 nm. The sensitivity was set at 1 mdeg and the scan speed was set at 20 nm per minute. Three scans were accumulated and automatically averaged by the computer. The λmax and ellipticity (mdeg) for each spectrum were collected from the raw scans and the final plots were smoothed by the noise reduction program on the computer. […] The induced CD band is presumably due to the uv absorption π to π^* transition of the drug in the drug:DNA complex. […] Therefore interaction of these drugs with DNA causes only minor conformational changes in the double helix.

COLO-205 = test: NCI cytotoxicity screen (SRB); type: cell-based, human
Procedure: (§3) Compounds 6, 7, 9 and 10 were tested for cytotoxic properties by the National Cancer Institute, Bethesda, Md. The anticancer drug screen utilized a panel of 60 human tumor cell lines organized into subpanels representing leukemia, melanoma, and cancers of the lung, colon, kidney, ovary and central nervous system and is described by Monks et al. (1991) Journal of the National Cancer Institute 83, 757, which is incorporated herein by reference.
(§4) Cell lines were inoculated onto microtiter plates and preincubated for 24-28 hours. 100 μL aliquots of each compound were added to the appropriate microtiter plate wells in each of five 10-fold dilutions starting from a maximum concentration of 10^-4 M in water or DMSO. Cultures were then incubated for an additional 48 hours. Cells were then fixed in situ, followed by staining with sulforhodamine B (SRB), which binds to basic amino acids of cellular macromolecules. The solubilized stain was measured spectrophotometrically to determine relative cell growth or viability in treated and untreated cells. The monoimidazole analogs of Compounds 6, 7, 9 and 10 and the formamido analog corresponding to Compounds 7 and 10 are devoid of activity against the panel of cancer cell lines in Table III.

DLD-1 = test: NCI cytotoxicity screen (SRB); type: cell-based, human
Procedure: as §3, §4

DMS-114 = test: NCI cytotoxicity screen (SRB); type: cell-based, human
Procedure: as §3, §4

DMS-273 = test: NCI cytotoxicity screen (SRB); type: cell-based, human
Procedure: as §3, §4

HCC-2998 = test: NCI cytotoxicity screen (SRB); type: cell-based, human
Procedure: as §3, §4

HCT-15 = test: NCI cytotoxicity screen (SRB); type: cell-based, human
Procedure: as §3, §4

HOP-62 = test: NCI cytotoxicity screen (SRB); type: cell-based, human
Procedure: as §3, §4

K-562 = test: NCI cytotoxicity screen (SRB); type: cell-based, human
Procedure: as §3, §4

KM20L2 = test: NCI cytotoxicity screen (SRB); type: cell-based, human
Procedure: as §3, §4

Molt-4 = test: NCI cytotoxicity screen (SRB); type: cell-based, human
Procedure: as §3, §4

NCI-H322M = test: NCI cytotoxicity screen (SRB); type: cell-based, human
Procedure: as §3, §4

NCI-H460 = test: NCI cytotoxicity screen (SRB); type: cell-based, human
Procedure: as §3, §4

SF-268 = test: NCI cytotoxicity screen (SRB); type: cell-based, human
Procedure: as §3, §4

SW-620 = test: NCI cytotoxicity screen (SRB); type: cell-based, human
Procedure: as §3, §4

XF498 = test: NCI cytotoxicity screen (SRB); type: cell-based, human
Procedure: as §3, §4

[1] = 48 h, Small Cell Lung Cancer DMS-114
[2] = 48 h, Small Cell Lung Cancer DMS-273
[3] = 48 h, Non-Small Cell Lung Cancer HOP-62
[4] = 48 h, Non-Small Cell Lung Cancer NCI-H322M
[5] = 48 h, Non-Small Cell Lung Cancer NCI-H460
[6] = NCI-H322M, subsequent test date

| Structure (SMILES) | CD titration result in words (poly(dA.dT)) | IC50 (COLO-205; 48 h, Colon Cancer COLO-205) | IC50 (DLD-1; 48 h, Colon Cancer DLD-1) | IC50 (DMS-114; [1]) | IC50 (DMS-273; [2]) | IC50 (HCC-2998; 48 h, Colon Cancer HCC-2998) | IC50 (HCT-15; 48 h, Colon Cancer HCT-15) | IC50 (HOP-62; [3]) | IC50 (K-562; 48 h, Leukemia K-562) | IC50 (KM20L2; 48 h, Colon Cancer KM20L2) | IC50 (Molt-4; 48 h, Leukemia Molt-4) | IC50 (NCI-H322M; [4]) | IC50 (NCI-H460; [5]) | IC50 (SF-268; 48 h, CNS Cancer SF-268) | IC50 (SW-620; 48 h, Colon Cancer SW-620) | IC50 (XF498; 48 h, CNS Cancer XF498) | isobestic point (poly(dG.dC); poly(dG.dC)) | IC50 (COLO-205; COLO-205, subsequent test date) | IC50 (DMS-114; DMS-114, subsequent test date) | IC50 (DMS-273; DMS-273, subsequent test date) | further results |
| --- | --- | --- | --- | --- | --- | --- | --- | --- | --- | --- | --- | --- | --- | --- | --- | --- | --- | --- | --- | --- | --- |
| CN(C)CCNC(=O)c1nc(NC(=O)c2nc(NC(=O)c3nc(NCc4ccc(N(CCCl)CCCl)cc4)cn3C)cn2C)cn1C [Compound 8, N-(N',N'-dimethylaminoethyl)-1-methyl-4-{1-methyl-4-[4-(4,4-bis-(2-chloroethyl)aminobenzylamino)-1-methylimidazole-2-carboxamido]imidazole-2-carboxamido}imidazole-2-carboxamide] | did not produce any changes in the CD spectrum | – | – | – | – | – | – | – | – | – | – | – | – | – | – | – | – | – | – | – | new positive Cotton effect shoulder, wavelength (poly(dG.dC); poly(dG.dC)): 288 nm |
| CN(C)CCNC(=O)c1nc(NC(=O)c2nc(NC(=O)c3nc(NC(=O)CCCc4ccc(N(CCCl)CCCl)cc4)cn3C)cn2C)cn1C [Compound 10, N-(N',N'-dimethylaminoethyl)-1-methyl-4-{1-methyl-4-[4-(4,4-bis(2-chloroethyl)aminophenyl-1-butanamido)-1-methylimidazole-2-carboxamido]imidazole-2-carboxamido}imidazole-2-carboxamide] | – | 11.4 µM | 42.2 µM | 7.49 µM | 6.78 µM | 38.5 µM | 45.3 µM | 44 µM | 7.05 µM | 8.63 µM | 3.19 µM | 23.9 µM | 6.13 µM | 31.3 µM | 9.3 µM | 5.79 µM | – | – | – | – | negative Cotton effect band, ellipticity (poly(dA.dT); 315 nm, equimolar titration): -0.8 mdeg; negative Cotton effect band, ellipticity (poly(dG.dC); 315 nm, equimolar titration): -1.0 mdeg |
| CN(C)CCNC(=O)c1nc(NC(=O)c2nc(NC(=O)c3ccc(N(CCCl)CCCl)cc3)cn2C)cn1C [Compound 6, N-(N',N'-dimethylaminoethyl)-1-methyl-4-{4-[4,4-bis(2-chloroethyl)aminobenzamido]-1-methylimidazole-2-carboxamido}imidazole-2-carboxamide] | – | 5.88 µM | 46.6 µM | 5.83 µM | – | 33.7 µM | 40.5 µM | 52.3 µM | 17.2 µM | 6.77 µM | 18.1 µM | 40.5 µM | 46.1 µM | 50 µM | 9.95 µM | – | 297 nm | 7.39 µM | 4.99 µM | 31.3 µM | induced negative CD band, ellipticity (poly(dA.dT); 310 nm, r'=0.2): 0.4 mdeg; induced positive CD band, ellipticity (poly(dA.dT); 350 nm, r'=0.2): 1.8 mdeg; isobestic point (poly(dA.dT); poly(dA.dT)): 315 nm; induced negative CD band, ellipticity (poly(dG.dC); 330 nm, r'=0.2): 0.7 mdeg; IC50 (DLD-1; DLD-1, subsequent test date): 55.5 µM; IC50 (HCC-2998; HCC-2998, subsequent test date): 8.14 µM; IC50 (HCT-15; HCT-15, subsequent test date): 43.2 µM; IC50 (HOP-62; HOP-62, subsequent test date): 50.6 µM; IC50 (K-562; K-562, subsequent test date): 12.3 µM; IC50 (KM20L2; KM20L2, subsequent test date): 20.1 µM; IC50 (Molt-4; Molt-4, subsequent test date): > 100 µM; IC50 (NCI-H322M; [6]): 51.7 µM; IC50 (NCI-H460; NCI-H460, subsequent test date): 35.1 µM; IC50 (SF-268; SF-268, subsequent test date): 9.21 µM; IC50 (SW-620; SW-620, subsequent test date): 12 µM; IC50 (XF498; XF498, subsequent test date): 25.2 µM |
| CN(C)CCNC(=O)c1nc(NC(=O)c2nc(NC(=O)c3nc(NC(=O)c4ccc(N(CCCl)CCCl)cc4)cn3C)cn2C)cn1C [Compound 7, N-(N',N'-dimethylaminoethyl)-1-methyl-4-{1-methyl-4-[4-(4,4-bis-(2-chloroethyl)aminobenzamido)-1-methylimidazole-2-carboxamido]imidazole-2-carboxamido}imidazole-2-carboxamide] | minor changes in the CD spectrum | 0.97 µM | 4.34 µM | – | – | 0.68 µM | > 10 µM | 1.17 µM | 0.58 µM | 7.92 µM | 0.98 µM | 2.39 µM | 5.67 µM | 0.77 µM | 0.79 µM | 0.62 µM | 283 nm | 0.56 µM | 0.54 µM | 0.99 µM | negative Cotton effect, ellipticity (poly(dG.dC); 333 nm, r'=0.2): 1 mdeg; IC50 (HCC-2998; HCC-2998, subsequent test date): 0.89 µM; IC50 (HCT-15; HCT-15, subsequent test date): > 100 µM; IC50 (NCI-H322M; [6]): 1.97 µM; IC50 (NCI-H460; NCI-H460, subsequent test date): 4.12 µM; IC50 (SW-620; SW-620, subsequent test date): 0.63 µM; IC50 (XF498; XF498, subsequent test date): 0.65 µM |
| CN(C)CCNC(=O)c1nc(NC(=O)c2nc(NC(=O)CCCc3ccc(N(CCCl)CCCl)cc3)cn2C)cn1C [Compound 9, N-(N',N'-dimethylaminoethyl)-1-methyl-4-{4-[4,4-bis(2-chloroethyl)aminophenyl-1-butanamido]-1-methylimidazole-2-carboxamido}imidazole-2-carboxamide] | – | 81.6 µM | – | – | 42.7 µM | 55.1 µM | 61.3 µM | 75.5 µM | 54.2 µM | 53.4 µM | 71.3 µM | 77.6 µM | 43.5 µM | – | 77.3 µM | – | – | – | – | – | – |
